Results: PubChem BioAssay (NCI)
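Protocol summary: plate cells (96-well), add compound at 5 concentrations, incubate 48 h, interpolate endpoints linearly. GI50: concentration for 50% inhibition of growth. Definition used: TGI = concentration required for complete inhibition of growth.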

Key:
Assay in all cases: growth of human tumour cells (NCI), 48 h
HOP-62 NSCLC = system: HOP-62 NSCLC
HOP-92 NSCLC = system: HOP-92 NSCLC
IGROV1 ovarian = system: IGROV1 ovarian
NCI-H23 lung = system: NCI-H23 lung
NCI-H460 lung = system: NCI-H460 lung
NCI/ADR-RES ovarian = system: NCI/ADR-RES ovarian
OVCAR-8 ovarian = system: OVCAR-8 ovarian
PC-3 prostate = system: PC-3 prostate
SK-MEL-2 melanoma = system: SK-MEL-2 melanoma
TK-10 renal = system: TK-10 renal

SMILES	TGI (HOP-62 NSCLC) [µM]	TGI (HOP-92 NSCLC) [µM]	TGI (IGROV1 ovarian) [µM]	TGI (NCI-H23 lung) [µM]	TGI (NCI-H460 lung) [µM]	TGI (NCI/ADR-RES ovarian) [µM]	TGI (OVCAR-8 ovarian) [µM]	TGI (PC-3 prostate) [µM]	TGI (SK-MEL-2 melanoma) [µM]	TGI (TK-10 renal) [µM]	GI50 (HOP-62 NSCLC) [µM]	GI50 (HOP-92 NSCLC) [µM]	GI50 (NCI-H23 lung) [µM]	GI50 (NCI-H460 lung) [µM]	GI50 (NCI/ADR-RES ovarian) [µM]	GI50 (OVCAR-8 ovarian) [µM]	GI50 (PC-3 prostate) [µM]	GI50 (SK-MEL-2 melanoma) [µM]	GI50 (TK-10 renal) [µM]	GI50 (IGROV1 ovarian) [µM]
C/C(Cl)=N\OC(=O)Nc1ccc(C)cc1	> 100	37.1	32.5	39	33.4	42.1	32.4	29.3	33.1	28.5	–	–	–	–	–	–	–	–	–	–
Cc1c(CN2CCN(C)CC2)c(CN2CCN(C)CC2)c(C)n1-c1ccc(Cl)cc1	> 100	–	> 100	> 100	> 100	> 100	51.6	> 100	46.2	47.8	–	–	–	–	–	–	–	–	–	–
CC(C)N1CC2CC(CN(C(=O)c3ccccc3)C2)C1	> 100	> 100	> 100	> 100	> 100	–	> 100	–	> 100	> 100	–	–	–	–	–	–	–	–	–	–
COc1cc(CC(C)NC(C)=O)cc(OC)c1 (centres undefined)	> 100	–	> 100	> 100	> 100	> 100	> 100	> 100	> 100	> 100	–	–	–	–	–	–	–	–	–	–
Cc1cc(C)c2c(=O)cc(-c3cccc(F)c3)[nH]c2n1	> 79.9	0.489	–	11.2	2.45	–	> 100	> 49.1	–	> 100	–	–	–	–	–	–	–	–	–	–
COc1ccc(/C=c2\s/c(=C3/SC(=S)N(c4ccccc4)C3=O)n(-c3ccccc3)c2=O)cc1	69.9	> 100	75.9	> 100	> 100	> 100	> 100	> 100	–	59.2	–	–	–	–	–	–	–	–	–	–
Cc1cc(S(=O)(=O)Nc2n[nH]c(-c3ccccn3)n2)c(S)cc1Cl	59	64.1	85.4	–	27.7	35.3	30.4	> 100	63.9	23.9	–	–	–	–	–	–	–	–	–	–
COC(=O)c1ccccc1NC(=O)C(=O)NNC(=O)c1ccncc1	> 100	> 100	> 100	> 100	> 100	–	> 100	–	–	> 100	–	–	–	–	–	–	–	–	–	–
CC(=O)OCC1OC(n2c(-c3ccccc3)c(N=Nc3ccccc3)c(C)c(C#N)c2=S)C(OC(C)=O)C(OC(C)=O)C1OC(C)=O (centres undefined)	> 100	> 100	> 100	> 100	> 100	> 100	–	> 100	> 100	> 100	–	–	–	–	–	–	–	–	–	–
COC(=O)C(=O)C(C(=O)C(=O)Nc1cccc(C(C)=O)c1)c1nc2ccccc2[nH]c1=O (centres undefined)	–	> 100	> 100	> 100	> 100	–	–	–	> 100	> 100	–	–	–	–	–	–	–	–	–	–
Cc1cc2ncn(C3CCCCO3)c2cc1C (centres undefined)	> 100	> 100	> 100	> 100	–	> 100	> 100	> 100	> 100	> 100	–	–	–	–	–	–	–	–	–	–
c1cncc(CC2(c3cc4ccccc4[nH]3)OCCO2)c1	–	> 100	> 100	> 100	> 100	> 100	> 100	> 100	> 100	> 100	–	–	–	–	–	–	–	–	–	–
CC[C@H](Nc1nc(C)nc(N)c1C#N)c1nc2cccc(NCc3ccc(C(=O)NO)cc3)c2c(=O)n1-c1ccccc1	3.09	3.07	–	4.05	3.78	4.69	3.71	4.04	5.51	7.86	1.49	1.38	1.83	1.79	1.99	1.55	1.47	2.07	2.43	–
S=C(N/N=C\C(=N/NC(=S)N1CCCCC1)c1ccccc1)N1CCCCC1	5.83	3.88	3.45	–	4.86	7.87	–	4.06	–	3.25	–	–	–	–	–	–	–	–	–	–
COc1ccc(-c2c3c(n(C4OC(CO)C(O)C(O)C4O)c(=S)c2C#N)CCC3)cc1 (centres undefined)	> 100	> 100	> 100	> 100	> 100	> 100	–	> 100	> 100	> 100	–	–	–	–	–	–	–	–	–	–
COc1ccc(OC2OC(CO)C(OCc3ccccc3)C(OCc3ccccc3)C2OCc2ccccc2)cc1 (centres undefined)	> 100	–	> 100	> 100	> 100	> 100	> 100	> 100	> 100	> 100	–	–	–	–	–	–	–	–	–	–
COC(=O)C1CCc2sc3ncnc(Nc4cn[nH]c4C(=O)Nc4ccc(CN5CCN(C)CC5)cc4)c3c21 (centres undefined)	19.5	5.88	> 100	2.67	1.49	> 100	75.1	–	3.48	17.8	0.453	1.14	0.506	0.331	3.27	0.711	–	0.692	2.31	0.447
COc1ccc(C2C3=C(COC3=O)Oc3cc4c(cc32)OCO4)c(OC)c1 (centres undefined)	> 100	–	> 100	> 100	> 100	> 100	> 100	> 100	–	> 100	–	–	–	–	–	–	–	–	–	–
CC1CCC2(NC1)OC1CC3C4CC=C5CC(OC6OC(CO)C(OC7OC(C)C(O)C(O)C7O)C(O)C6OC6OC(C)C(O)C(O)C6O)CCC5(C)C4CCC3(C)C1C2C (centres undefined)	> 100	21.1	15.5	27.1	9.16	–	8.31	4.28	9.07	15.1	–	–	–	–	–	–	–	–	–	–
CCC1=C(C(C)=O)[C@@H]2CCCCC[C@@H](C(=O)OC)C2C1=O (some centres undefined)	> 100	> 100	> 100	> 100	> 100	–	> 100	–	> 100	> 100	–	–	–	–	–	–	–	–	–	–
CCOC(=O)C1(C#N)C(c2ccccc2)CC(O)(c2ccc(Cl)cc2)C(C(=O)c2ccc(Cl)cc2)C1c1ccccc1 (centres undefined)	> 100	–	> 100	> 100	> 100	–	> 100	–	> 100	> 100	–	–	–	–	–	–	–	–	–	–
